Test results from patent US9718790B2, “Triazine derivative and pharmaceutical composition having an analgesic activity comprising the same” (SHIONOGI & CO., LTD., priority 2010, dated 2017).

The compounds below were run against human P2X3 receptor (Homo sapiens (Human), UniProt P56373) (assay: Evaluation of human P2X3 receptor inhibitory activity (Fluo-3 calcium fluorescence, FDSS 3000, ATP stimulation)). Conditions: C6BU-1 cells stably expressing human P2X3 receptor.
Format: cell-based
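Further: stimulus was 50 nM ATP with fluorescence followed for 3 min, and the response per well was peak post-ATP fluorescence divided by the reading at measurement start.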

human P2X3 receptor, sequence (P56373 whole entry): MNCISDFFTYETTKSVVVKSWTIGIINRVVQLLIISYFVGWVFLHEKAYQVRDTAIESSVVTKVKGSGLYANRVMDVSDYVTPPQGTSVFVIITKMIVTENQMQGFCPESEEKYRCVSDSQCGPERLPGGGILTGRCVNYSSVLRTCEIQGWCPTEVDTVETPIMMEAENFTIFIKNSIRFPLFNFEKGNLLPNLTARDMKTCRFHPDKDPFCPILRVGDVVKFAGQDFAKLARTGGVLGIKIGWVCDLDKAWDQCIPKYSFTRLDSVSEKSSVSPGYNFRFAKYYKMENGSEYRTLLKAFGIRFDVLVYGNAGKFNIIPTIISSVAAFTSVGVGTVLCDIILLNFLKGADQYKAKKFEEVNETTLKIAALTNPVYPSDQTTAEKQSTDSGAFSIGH

O=C(O)c1cncc(Oc2ccc(/N=c3\[nH]c(=O)n(CC(F)F)c(=O)n3Cc3ccc(Cl)cc3)cc2)c1 [Compound I-2215] and CCCn1c(=O)[nH]/c(=N\c2ccc(Oc3ccnc(C(=O)O)c3)cc2)n(Cc2ccc(Cl)cc2)c1=O [Compound I-2162] are the same in IC50: 6 nM for the first, 6 nM for the second.

Compared with C=Cc1cc(/N=c2\[nH]c(=O)n(CCC(=O)O)c(=O)n2Cc2ccc(C)cc2)ccc1OC(C)C [Compound I-1192], CCOC(=O)CCn1c(=O)[nH]/c(=N\c2ccc(CC(C)C)c(Cl)c2)n(Cc2ccc(C)cc2)c1=O [Compound I-1426] is 2.5-fold higher in IC50: 20 nM for the first, 50 nM for the second. The first is the more potent here.

Going from CCn1c(=O)[nH]/c(=N\c2ccc(Oc3cncc(C(N)=O)c3)cc2)n(CC2CCC3(CC2)CC3)c1=O [Compound I-2178] to CCn1c(=O)[nH]/c(=N\c2ccc(Oc3ccnc(C(=O)O)c3)cc2)n(CC2CCC(C)(C)CC2)c1=O [Compound I-2208], the IC50 rises from 5 nM to 12 nM (2.4-fold). The first is the more potent here.

Going from C[C@@H](Oc1ccc(/N=c2\[nH]c(=O)n(CCC(=O)NCCO)c(=O)n2Cc2ccc(Cl)cc2)cc1)C(F)(F)F [Compound I-1998] to CCn1c(=O)[nH]/c(=N\c2ccc(Oc3ccc(C(=O)OC)c(F)c3)cc2)n(Cc2ccc(Cl)cc2)c1=O [Compound I-2218], the IC50 falls from 34 nM to 3 nM (11-fold).

Going from CCCc1ccc(/N=c2\[nH]c(=O)n(C[C@H](C)C(=O)O)c(=O)n2Cc2ccc(C)cc2)cc1C [Compound I-1212] to CCCc1ccc(/N=c2\[nH]c(=O)n(C[C@H](C)C(=O)O)c(=O)n2Cc2ccc(Cl)cc2)cc1OC [Compound I-1354], the IC50 rises from 90 nM to 139 nM (1.5-fold).

First: Cc1ccc(Cn2c(=O)n(C[C@H](C)C(=O)O)c(=O)[nH]/c2=N\c2ccc(Oc3cc(C)nc(C)c3)cc2)cc1 [Compound I-1260]
Second: COC(=O)[C@@H](C)Cn1c(=O)[nH]/c(=N\c2ccc3nc(C)oc3c2)n(Cc2ccc(C)cc2)c1=O [Compound I-1276]
The IC50 of the first is 2.5-fold lower: 31 nM for the first, 78 nM for the second. The first is the more potent here.

Compared with Cc1nc2ccc(/N=c3\[nH]c(=O)n(C[C@H](C)C(=O)O)c(=O)n3Cc3ccc(Cl)cc3)cc2nc1C [Compound I-1348], Cc1cc(/N=c2\[nH]c(=O)n(Cc3cc(C(=O)O)no3)c(=O)n2Cc2ccc(Cl)cc2)ccc1OC(C)C [Compound I-0802] is 44-fold lower in IC50: 918 nM for the first, 21 nM for the second. The second is the more potent here.

COC(=O)[C@@H](C)Cn1c(=O)[nH]/c(=N\c2ccc(OC3CCC3)cc2)n(Cc2ccc(C)cc2)c1=O [Compound I-1217] and CCOC(=O)CCCn1c(=O)[nH]/c(=N\c2ccc3nc(C)sc3c2)n(Cc2ccc(C)cc2)c1=O [Compound I-2123] are within 1.5-fold of each other in IC50: 5 nM for the first, 4 nM for the second.

Cc1ccc(Cn2c(=O)n([C@@H](C)[C@@H](C)C(=O)O)c(=O)[nH]/c2=N\c2ccc(OC(C)C)c(Br)c2)cc1 [Compound I-1334] showed an IC50 of 11 nM.

Same assay, conditions: C6BU-1 cells stably expressing human P2X3 receptor, Fluo-3 fluorescence, FDSS 3000

First: CCC[C@H](C)Oc1ccc(/N=c2\[nH]c(=O)n(CCC(=O)O)c(=O)n2Cc2ccc(C)cc2)cc1 [Compound I-1067]
Second: CCOC(=O)CCn1c(=O)[nH]/c(=N\c2ccc(OC(C)C)c(Br)c2)n(Cc2ccc(C)cc2)c1=O [Compound I-1168]
The IC50 of the first is 23-fold higher: 93 nM for the first, 4 nM for the second.

Compared with CC(C)Oc1ccc(/N=c2\[nH]c(=O)n([C@@H](C)[C@@H](C)C(=O)O)c(=O)n2Cc2ccc(Cl)cc2)cc1Cl [Compound I-0923], C[C@@H](C(=O)O)[C@H](C)n1c(=O)[nH]/c(=N\c2ccc3c(c2)OC(F)(F)O3)n(Cc2ccc(Cl)cc2)c1=O [Compound I-1821] is 29-fold higher in IC50: 15 nM for the first, 429 nM for the second. The first is the more potent here.

Compared with CC(C)Oc1ccc(/N=c2\[nH]c(=O)n(CCC(=O)O)c(=O)n2CCC2C[C@H]3CC[C@@H]2C3)cc1F (some centres unmarked) [Compound I-1729], CC1CCC(Cn2c(=O)n(CCC(=O)O)c(=O)[nH]/c2=N\c2ccc(OC(C)C)c(F)c2)CC1 (centres unmarked) [Compound I-1750] is 32-fold lower in IC50: 669 nM for the first, 21 nM for the second.

First: CCn1c(=O)[nH]/c(=N\c2ccc(Oc3ccnc(C(=O)NC)c3)cc2)n(Cc2ccc(Cl)cc2)c1=O [Compound I-1717]
Second: Cc1cc(/N=c2\[nH]c(=O)n(CC(=O)C(=O)O)c(=O)n2Cc2ccc(Cl)cc2)ccc1OC(C)C [Compound I-1009]
The IC50 of the first is 34-fold lower: 2 nM for the first, 69 nM for the second. The first is the more potent here.

Compared with CCOc1ccc(/N=c2\[nH]c(=O)n([C@@H](C)[C@@H](C)C(=O)OC)c(=O)n2Cc2ccc(C)cc2)cc1Cl [Compound I-0966], C#Cc1ccc(Cn2c(=O)n(C[C@H](C)C(=O)O)c(=O)[nH]/c2=N\c2ccc(OC(C)C)c(C)c2)cc1 [Compound I-0946] is 14-fold higher in IC50: 17 nM for the first, 239 nM for the second.

CC(C)=Cc1ccc(/N=c2\[nH]c(=O)n(C[C@H](C)C(=O)O)c(=O)n2Cc2ccc(Cl)cc2)cc1C [Compound I-0950] gave an IC50 of 20 nM.

Same assay, conditions: human P2X3 receptor, Test Example 1

COCCn1c(=O)[nH]/c(=N\c2ccc(Oc3cncc(C(=O)OC)c3)cc2)n(Cc2ccc(Cl)cc2)c1=O [Compound I-2537] and COCCn1c(=O)[nH]/c(=N\c2ccc(Oc3cccc(C(=O)O)n3)cc2)n(Cc2ccc(Cl)cc2)c1=O [Compound I-2548] are within 1.5-fold of each other in IC50: 5 nM for the first, 6 nM for the second.

Going from C[C@@H](Cn1c(=O)[nH]/c(=N\c2ccc(OCC(F)F)cc2)n(Cc2ccc(Cl)cc2)c1=O)C(=O)O [Compound I-0848] to O=C(O)c1cc(Oc2ccc(/N=c3\[nH]c(=O)n(CC(F)F)c(=O)n3Cc3ccc(Cl)cc3)cc2)ccn1 [Compound I-2248], the IC50 falls from 60 nM to 7 nM (8.6-fold).

First: O=c1[nH]/c(=N\c2ccc(Oc3ccnc(F)c3)cc2)n(Cc2ccc(Cl)cc2)c(=O)n1CC(CO)CO [Compound I-2705]
Second: O=c1[nH]/c(=N\c2ccc(Oc3nccs3)cc2)n(Cc2ccc(Cl)cc2)c(=O)n1CC(CO)CO [Compound I-2437]
The IC50 of the first is 2-fold lower: 3 nM for the first, 6 nM for the second.

First: CC(C)(O)Cn1c(=O)[nH]/c(=N\c2ccc(Oc3ccon3)cc2)n(Cc2ccc(Cl)cc2)c1=O [Compound I-2672]
Second: O=c1[nH]/c(=N\c2ccc(Oc3ccon3)cc2)n(Cc2ccc(Cl)cc2)c(=O)n1C(CO)CO [Compound I-2542]
The IC50 of the first is 17-fold lower: 11 nM for the first, 186 nM for the second. The first is the more potent here.

Going from CCOC(=O)C(F)(F)Cn1c(=O)[nH]/c(=N\c2ccc(OCC)c(Cl)c2)n(Cc2ccc(C)cc2)c1=O [Compound I-0856] to CC[C@@H](Cn1c(=O)[nH]/c(=N\c2ccc(OC(C)C)c(C)c2)n(Cc2ccc(Cl)cc2)c1=O)C(=O)O [Compound I-0889], the IC50 rises from 12 nM to 53 nM (4.4-fold). The first is the more potent here.

COc1cc(/N=c2\[nH]c(=O)n(C)c(=O)n2Cc2ccc(Cl)cc2)ccc1Oc1cccc(C#N)n1 [Compound I-2390] and Cn1c(=O)[nH]/c(=N\c2ccc(Oc3cc(C#N)ccn3)cc2)n(Cc2ccc(Cl)cc2)c1=O [Compound I-2341] are within 1.5-fold of each other in IC50: 7 nM for the first, 10 nM for the second.

Going from Cc1nnc(Oc2ccc(/N=c3\[nH]c(=O)n(CC(CO)CO)c(=O)n3Cc3ccc(Cl)cc3)cc2)s1 [Compound I-2517] to O=c1[nH]/c(=N\c2ccc(Oc3ccsn3)cc2)n(Cc2ccc(Cl)cc2)c(=O)n1C[C@H](O)CO [Compound I-2530], the IC50 falls from 167 nM to 16 nM (10-fold).

Compared with Cc1ccc(Cn2c(=O)n(CCCO)c(=O)[nH]/c2=N\c2ccc(Oc3cccc(C#N)n3)cc2)cc1 [Compound I-2640], Cc1ccc(Cn2c(=O)n(C)c(=O)[nH]/c2=N\c2ccc(Oc3ccc(C(N)=O)cn3)cc2)cc1 [Compound I-2464] is 5-fold higher in IC50: 2 nM for the first, 10 nM for the second. The first is the more potent here.

O=c1[nH]/c(=N\c2ccc(Oc3ncccn3)cc2)n(Cc2ccc(Cl)cc2)c(=O)n1C[C@H](O)CO [Compound I-2418] and CCn1c(=O)[nH]/c(=N\c2ccc(Oc3ccc(C(=O)O)c(F)c3)cc2)n(Cc2ccc(Cl)cc2)c1=O [Compound I-2226] are the same in IC50: 12 nM for the first, 12 nM for the second.

CC(CO)(CO)Cn1c(=O)[nH]/c(=N\c2ccc(OCC3CC3)cc2)n(Cc2ccc(F)cc2)c1=O [Compound I-2617] showed an IC50 of 42 nM.
